Measured values: patent US11130766B2, “Deuterated thienopiperidine derivatives, manufacturing method, and application thereof” (JIANGSU TASLY DIYI PHARMACEUTICAL CO., LTD., priority 2015, dated 2021)
Where two headings read alike, the source gives them in different places. Marks after values point to notes of the source that are not given here.

How the values were obtained:
esterase = conditions: for sample test results (concentration) Mean / sample test results (concentration) Num. 1 / sample test results (concentration) Num. 2 / sample test results (concentration) Num. 3: rat whole blood, 37° C., 30 μg/mL
Protocol: The hydrolysis rates of formula TSD-6 and clopidogrel bisulfate in the rat whole blood were determined by employing the in vitro incubation method.
3 mL of the rat fresh whole blood was taken and placed in a glass test tube. 30 μg/mL of formula TSD-6 and clopidogrel bisulfate (prepared with saline) were added, with 3 parallel tests for each group. The test tubes were shocked at a constant temperature of 37° C., 100 μL of the mixture was taken out at fixed time points of 10 min, 20 min, 30 min, 40 min, 50 min, 60 min, 70 min, 80 min, 90 min, 100 min, 110 min, and 120 min, into which 900 μL of methanol was added to stop the reaction immediately, then 100 μL methanol/water (1:1, v/v) and 100 μL internal standard (diazepam, 100 ng/mL) were added sequentially. The mixture was centrifuged at 13000 rpm at low temperature for 10 min, the supernatant was transferred into another EP tube, and 20 μL of the supernatant was taken for sample injection.

[1] = test system: ADP induced platelet aggregation; assay: ADP induced platelet aggregation, maximum aggregation rate after administration to rats; format: in vivo, Wistar male rats; design: unit not given here; conditions: rat, in vivo, 3 mg/kg
Protocol: Addition of small dose of ADP (concentration less than 0.9 μmol/L) into the platelet suspension could lead to rapid platelet aggregation, followed by quick disaggregation; if moderate dose of ADP (about 1.0 μmol/L) was added, then the second irreversible aggregation phase appeared not long after the end of the first aggregation phase and the disaggregation. The maximum aggregation rate of the irreversible aggregation phase was used to evaluate the effect of the test samples on the function of blood coagulation.
Animals: Wistar male rats, weighing 230-250 g, were purchased from Vital River Laboratory Animal Technology Co., Ltd.
Reagent: ADP, Sigma Corporation.
Test samples: 16 test samples were provided by the Tasly Group; referred to China patent application 201310428052.4 for manufacturing method of TSC-1˜4 and TSC-6˜9.
Dose of administration: the test samples were suspended with 0.25% CMC, administered 3 mg/kg weight, volume of administration: 2 mL.
2 Hours after administration, the rats were anesthetized with pentobarbital sodium, and blood was drawn from the abdominal aorta, anticoagulated with sodium citrate with a ratio of 1:9, and centrifuged to obtain the platelet-rich plasma and platelet-poor plasma, with the mixed ratio of the platelet-poor plasma to platelet-rich plasma=3:1.

[2] = test system: Rat Arteriovenous Thrombus Loop Model
Excerpt: genus, strain: SD rat, • Provider: Slac • Weight: 250-350 g • Sex: male • Animal number: 30
Apparatus and Materials • Swab, dry tampon, alcohol pad, anerdian tampon. • Surgical scissor, ophthalmic forceps, hemostatic forceps, microsurgical scissor, microsurgical forceps, artery clamps. • 3-0 surgical suture, thick PE tube (I.D.*O.D.=1.14 mm*1.63 mm, 8 cm long), think PE tube (I.D.*O.D.=0.72 mm*1.22 mm, 6 cm long). • Surgical board, binding rope, timer, precise electronic balance, weighing paper. • Syringe, normal saline.
7. Experimental Method • After arrival, the animals were let adapt to the environment for 1 week and fasted for 16 hours prior to the test. • The arteriovenous blood loop circulation was started 2 h after oral administration of the test compounds and 4 h after oral administration of clopidogrel. • The rats were anesthetized with pentobarbital sodium (50 mg/kg, ip) 15 min before the arteriovenous blood loop circulation was started. • The left external jugular vein and the right carotid artery were separated and inserted with thin PE tubes respectively. • Two PE tubes were connected with another thick PE tube with a length of 8 cm to form a circulation passage. There's a 6 cm surgical suture (3-0) in the thick PE tube. • 15 min after the circulation passage was opened, the blood flow was blocked, the filament was taken out and weighed after the blood was sucked out. The thrombus weight was obtained after subtraction of the weight of the filament itself.

Rat Tail Bleeding Model = test system: Rat Tail Bleeding Model
Protocol: genus, strain SD rat, • Provider: Slac • Weight: 250-350 g • Sex: male • Animal number: 30
Experimental Method: • The animals were allowed adapt to the environment after arrival for 1 week and fasted for 16 hours prior to the experiment. • The tail bleeding time started to be recorded 2 h after oral administration of the test compounds and 4 h after oral administration of clopidogrel. • The rats were anesthetized with pentobarbital sodium (50 mg/kg, ip) 10 min prior to the recording of the tail bleeding time, after the rat was completely anesthetized and reaching the detection time, the tail was cut at 1.3 mm from the rat tail-tip with a scissor and perpendicularly immerged into a saline at 37° C. Timing recording was not started until the blood flow appeared. • The timing recording was stopped when the bleeding time interval was longer than 20 seconds. The maximum observation time for the blood flow was set for 40 minutes. If it was longer than 40 minutes, the timing recording was stopped and the time was recorded as 40 minutes.

SMILES: [2H]C([2H])([2H])OC(=O)[C@H](c1ccccc1Cl)N1CCc2sc(OP(=O)(O)O)cc2C1 [TSD-6]
- hydrolysis rate in the rat whole blood (esterase; compared with clopidogrel, FIG. 2): significantly slower than that of clopidogrel
- sample test results (concentration) Mean (esterase; 10 min): 389.7
- sample test results (concentration) Num. 1 (esterase; 10 min): 486
- sample test results (concentration) Num. 2 (esterase; 10 min): 287
- sample test results (concentration) Num. 3 (esterase; 10 min): 396
- sample test results (concentration) Mean (esterase; 20 min): 315.3
- sample test results (concentration) Num. 1 (esterase; 20 min): 306
- sample test results (concentration) Num. 2 (esterase; 20 min): 345
- sample test results (concentration) Num. 3 (esterase; 20 min): 295
- sample test results (concentration) Mean (esterase; 30 min): 244.3
- sample test results (concentration) Num. 1 (esterase; 30 min): 246
- sample test results (concentration) Num. 2 (esterase; 30 min): 223
- sample test results (concentration) Num. 3 (esterase; 30 min): 264
- sample test results (concentration) Mean (esterase; 40 min): 217.7
- sample test results (concentration) Num. 1 (esterase; 40 min): 232
- sample test results (concentration) Num. 2 (esterase; 40 min): 213
- sample test results (concentration) Num. 3 (esterase; 40 min): 208
- sample test results (concentration) Mean (esterase; 50 min): 172.0
- sample test results (concentration) Num. 1 (esterase; 50 min): 196
- sample test results (concentration) Num. 2 (esterase; 50 min): 153
- sample test results (concentration) Num. 3 (esterase; 50 min): 167
- sample test results (concentration) Mean (esterase; 60 min): 132.3
- sample test results (concentration) Num. 1 (esterase; 60 min): 115
- sample test results (concentration) Num. 2 (esterase; 60 min): 134
- sample test results (concentration) Num. 3 (esterase; 60 min): 148
- sample test results (concentration) Mean (esterase; 90 min): 97.50
- sample test results (concentration) Num. 1 (esterase; 90 min): 85.3
- sample test results (concentration) Num. 2 (esterase; 90 min): 112
- sample test results (concentration) Num. 3 (esterase; 90 min): 95.2
- sample test results (concentration) Mean (esterase; 100 min): 72.57
- sample test results (concentration) Num. 1 (esterase; 100 min): 84.7
- sample test results (concentration) Num. 2 (esterase; 100 min): 71.8
- sample test results (concentration) Num. 3 (esterase; 100 min): 61.2
- sample test results (concentration) Mean (esterase; 110 min): 54.63
- sample test results (concentration) Num. 1 (esterase; 110 min): 48.1
- sample test results (concentration) Num. 2 (esterase; 110 min): 59.1
- sample test results (concentration) Num. 3 (esterase; 110 min): 56.7
- sample test results (concentration) Mean (esterase; 120 min): 25.83
- sample test results (concentration) Num. 1 (esterase; 120 min): 24.5
- sample test results (concentration) Num. 2 (esterase; 120 min): 28.4
- sample test results (concentration) Num. 3 (esterase; 120 min): 24.6
- Maximum Platelet Aggregation Rate [1]: 17.4 ± 5.13
- Thrombus (mg) ([2]; SD rat, 1.0 mg/kg oral gavage, 2 h after administration, 15 min circulation): 18.4* mg
- weight of the thrombus formed ([2]; rat arteriovenous thrombus loop model, 1 mg/kg oral): much lower than that of the non-deuterated compound TSC-6 and analog I-1
- Tail Bleeding Time (s) (Rat Tail Bleeding Model; SD rat, 1.0 mg/kg oral gavage, 2 h after administration): 1331* s
- anticoagulant effect (tail bleeding time) (Rat Tail Bleeding Model; rat tail bleeding model, 1 mg/kg oral): much better than that of the non-deuterated compound TSC-6 and analog I-1
